Experimental data: patent publication US9499550B2 (BRISTOL-MYERS SQUIBB COMPANY, priority 2012, dated 2016)
Like-named read-outs stand apart in the source and are kept apart here.

How the values were obtained:
[1] = test system: HCV genotype 1a (H77 strain) replicon in HUH-7 cells; experiment: HCV replicon luciferase reporter assay, genotype 1a; format: cell-based; conditions: Hepatitis C virus, Huh-7, 72 h, 3 days incubation, read-out: LE_1a (EC50, range)
Summary of the method: (§1)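 Replicon inhibition for both genotypes was measured as Renilla luciferase signal (EnduRen, 7.5 μM final, 2 h) after 3-day, 37° C exposure of replicon-bearing HUH-7 cells in 4% FCS DMEM, 0.5% DMSO. The 1b construct carries S1179I; the 1a H77 construct carries P1496L and S2204I. Twenty-point, 3-fold dilutions were fitted four-parametrically for EC50, and CC50 was taken from multiplexed Cell Titer-Blue.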

[2] = test system: HCV genotype 1b (Con1) replicon in HUH-7 cells; experiment: HCV replicon luciferase reporter assay, genotype 1b; format: cell-based; conditions: Hepatitis C virus, Huh-7, 72 h, 3 days incubation, read-out: LE_1b (EC50, range)
Summary of the method: as §1

[3] = HCV genotype 1a replicon luciferase
[4] = HCV genotype 1b replicon luciferase
[5] = HCV genotype 1a replicon luciferase assay, range class
[6] = HCV genotype 1b replicon luciferase assay, range class
[7] = GETYPE1A, HCV genotype 1a replicon luciferase
[8] = GETYPE1B, HCV genotype 1b replicon luciferase

Row | SMILES | EC50 [1, 3] | EC50 [2, 4] | other results
1 | [2H]C([2H])([2H])C(OC(=O)N[C@@H]1C(=O)N2C[C@H](Oc3nc(-c4ccc(OC(C)C)nc4)cc4cc(OC)ccc34)C[C@H]2C(=O)N[C@]2(C(=O)NS(=O)(=O)C3CC3)C[C@H]2/C=C\CC[C@H](C)C[C@H]1C)(C([2H])([2H])[2H])C(F)(F)F [Compound 5216, 1,1,1,3,3,3-hexadeutero-2-(trifluoromethyl)propan-2-yl((2R,6S,7R,9S,13aS,14aR,16aS,Z)-14a-((cyclopropylsulfonyl)carbamoyl)-2-((3-(6-isopropoxypyridin-3-yl)-6-methoxyisoquinolin-1-yl)oxy)-7,9-dimethyl-5,16-dioxo-1,2,3,5,6,7,8,9,10,11,13a,14,14a,15,16,16a-hexadecahydrocyclopropa[e]pyrrolo[1,2-a][1,4]diazacyclopentadecin-6-yl)carbamate] | 4.82 to 103 nM | < 5.46 nM | 
2 | COCCn1nc(O[C@@H]2C[C@H]3C(=O)N[C@]4(C(=O)NS(=O)(=O)C5(C)CC5)C[C@H]4/C=C\CC[C@@H](C)C[C@@H](C)[C@H](NC(=O)OC(C)(C)C)C(=O)N3C2)c2ccccc2c1=O [Compound 1006, tert-butyl ((2R,6S,7R,9R,13aS,14aR,16aS,Z)-2-((3-(2-methoxyethyl)-4-oxo-3,4-dihydrophthalazin-1-yl)oxy)-7,9-dimethyl-14a-(((1-methylcyclopropyl)sulfonyl)carbamoyl)-5,16-dioxo-1,2,3,5,6,7,8,9,10,11,13a,14,14a,15,16,16a-hexadecahydrocyclopropa[e]pyrrolo[1,2-a][1,4]diazacyclopentadecin-6-yl)carbamate] |  |  | EC50 [1, 5]: 4.82 to 103 nM; EC50 [2, 6]: 4.82 to 103 nM
3 | COc1ccc2c(O[C@@H]3C[C@H]4C(=O)N[C@]5(C(=O)NS(=O)(=O)C6CC6)C[C@H]5/C=C\CC[C@H](C)C[C@@H](C)[C@H](NC(=O)O[C@H](C)C(F)(F)F)C(=O)N4C3)nc(-c3ccc(OC(C)C)cn3)cc2c1 [Compound 5206, (R)-1,1,1-trifluoropropan-2-yl ((2R,6S,7R,9S,13aS,14aR,16aS,Z)-14a-((cyclopropylsulfonyl)carbamoyl)-2-((3-(5-isopropoxypyridin-2-yl)-6-methoxyisoquinolin-1-yl)oxy)-7,9-dimethyl-5,16-dioxo-1,2,3,5,6,7,8,9,10,11,13a,14,14a,15,16,16a-hexadecahydrocyclopropa[e]pyrrolo[1,2-a][1,4]diazacyclopentadecin-6-yl)carbamate] | < 5.46 nM | < 5.46 nM | 
4 | COc1cc2ccnc(O[C@@H]3C[C@H]4C(=O)N[C@]5(C(=O)NS(=O)(=O)C6(C)CC6)C[C@H]5/C=C\CC[C@@H](C)C[C@@H](C)[C@H](NC(=O)OC(C)(C)C(C)(F)F)C(=O)N4C3)c2cc1OC [Compound 5377, 3,3-difluoro-2-methylbutan-2-yl((2R,6S,7R,9R,13aS,14aR,16aS,Z)-2-((6,7-dimethoxyisoquinolin-1-yl)oxy)-7,9-dimethyl-14a-(((1-methylcyclopropyl)sulfonyl)carbamoyl)-5,16-dioxo-1,2,3,5,6,7,8,9,10,11,13a,14,14a,15,16,16a-hexadecahydrocyclopropa[e]pyrrolo[1,2-a][1,4]diazacyclopentadecin-6-yl)carbamate] | 1.01 to 5 nM | 1.01 to 5 nM | 
5 | C[C@@H]1CC/C=C\[C@@H]2C[C@@]2(C(=O)NS(=O)(=O)C2(C)CC2)NC(=O)[C@@H]2C[C@@H](Oc3nc4c(c5ccccc35)CCCO4)CN2C(=O)[C@@H](NC(=O)OC(C)(C)C)[C@H](C)C1 [Compound 6044, tert-butyl ((2R,6S,7R,9R,13aS,14aR,16aS,Z)-2-((2,3-dihydro-1H-pyrano[2,3-c]isoquinolin-6-yl)oxy)-7,9-dimethyl-14a-(((1-methylcyclopropyl)sulfonyl)carbamoyl)-5,16-dioxo-1,2,3,5,6,7,8,9,10,11,13a,14,14a,15,16,16a-hexadecahydrocyclopropa[e]pyrrolo[1,2-a][1,4]diazacyclopentadecin-6-yl)carbamate] | 1.01 to 5 nM | 0.1 to 0.5 nM | 
6 | CC[C@@H]1C[C@H](C)CC/C=C\[C@@H]2C[C@@]2(C(=O)NS(=O)(=O)C2(C)CC2)NC(=O)[C@@H]2C[C@@H](Oc3nccc4cc(OC)c(F)cc34)CN2C(=O)[C@H]1NC(=O)OC1(C(F)(F)F)CCCCO1 (stereo partly shown) [Compound 1192] |  |  | EC50 [1, 7]: 1.01 to 5 nM; EC50 [2, 8]: 0.51 to 1 nM
7 | COc1ccc2c(O[C@@H]3C[C@H]4C(=O)N[C@]5(C(=O)NS(=O)(=O)C6CC6)C[C@H]5/C=C\CC[C@@H](C)C[C@@H](C)[C@H](NC(=O)O[C@@H]5C[C@@H]6C[C@@H]6C5)C(=O)N4C3)nc(-c3ccc(OC)c(Cl)c3)cc2c1 [Compound 3054, (1R,3r,5S)-bicyclo[3.1.0]hexan-3-yl((2R,6S,7R,9R,13aS,14aR,16aS,Z)-2-((3-(3-chloro-4-methoxyphenyl)-6-methoxyisoquinolin-1-yl)oxy)-14a-((cyclopropylsulfonyl)carbamoyl)-7,9-dimethyl-5,16-dioxo-1,2,3,5,6,7,8,9,10,11,13a,14,14a,15,16,16a-hexadecahydrocyclopropa[e]pyrrolo[1,2-a][1,4]diazacyclopentadecin-6-yl)carbamate] |  |  | EC50 [1, 5]: < 5.46 nM; EC50 [2, 6]: < 5.46 nM
8 | CC[C@@H]1C[C@H](C)CC/C=C\[C@@H]2C[C@@]2(C(=O)NS(=O)(=O)C2(C)CC2)NC(=O)[C@@H]2C[C@@H](Oc3nc4cc(OC)ccc4nc3Cl)CN2C(=O)[C@H]1NC(=O)OC(C)(C)C(F)(F)F [Compound 4257] |  |  | EC50 [1, 7]: 5.01 to 35 nM; EC50 [2, 8]: 0.51 to 1 nM
9 | COc1cc2ccccc2c(O[C@@H]2C[C@H]3C(=O)N[C@]4(C(=O)NS(=O)(=O)C5CC5)C[C@H]4/C=C\CC[C@@H](C)C[C@@H](C)[C@H](NC(=O)OC(C)(C)C(F)(F)F)C(=O)N3C2)n1 [Compound 6018, 1,1,1-trifluoro-2-methylpropan-2-yl((2R,6S,7R,9R,13aS,14aR,16aS,Z)-14a-((cyclopropylsulfonyl)carbamoyl)-2-((3-methoxyisoquinolin-1-yl)oxy)-7,9-dimethyl-5,16-dioxo-1,2,3,5,6,7,8,9,10,11,13a,14,14a,15,16,16a-hexadecahydrocyclopropa[e]pyrrolo[1,2-a][1,4]diazacyclopentadecin-6-yl)carbamate] | < 5.46 nM | < 5.46 nM | 
10 | COc1cc2ccnc(O[C@@H]3C[C@H]4C(=O)N[C@]5(C(=O)NS(=O)(=O)C6(CF)CC6)C[C@H]5/C=C\CC[C@@H](C)C[C@@H](C)[C@H](NC(=O)OC(C)(C)C(F)(F)F)C(=O)N4C3)c2cc1F [Compound 4161] |  |  | EC50 [1, 7]: < 5.46 nM; EC50 [2, 8]: < 5.46 nM
11 | COc1cnc(O[C@@H]2C[C@H]3C(=O)N[C@]4(C(=O)NS(=O)(=O)C5(CO)CC5)C[C@H]4/C=C\CC[C@H](C)C[C@@H](C)[C@H](N)C(=O)N3C2)c2ccccc12 [Compound 4113, (2R,6S,7R,9S,13aS,14aR,16aS,Z)-6-amino-N-(1-(hydroxymethyl)cyclopropylsulfonyl)-2-(4-methoxyisoquinolin-1-yloxy)-7,9-dimethyl-5,16-dioxo-1,2,3,5,6,7,8,9,10,11,13a,14,14a,15,16,16a-hexadecahydrocyclopropa[e]pyrrolo[1,2-a][1,4]diazacyclopentadecine-14a-carboxamide] | > 87.4 nM | > 87.4 nM | 
12 | CCC(C)(CC)OC(=O)N[C@@H]1C(=O)N2C[C@H](Oc3nccc4c5c(ccc34)OCCO5)C[C@H]2C(=O)N[C@]2(C(=O)NS(=O)(=O)C3CC3)C[C@H]2/C=C\CC[C@H](C)C[C@H]1C [Compound 5265, 3-methylpentan-3-yl((2R,6S,7R,9S,13aS,14aR,16aS,Z)-14a-((cyclopropylsulfonyl)carbamoyl)-2-((2,3-dihydro-[1,4]dioxino[2,3-f]isoquinolin-7-yl)oxy)-7,9-dimethyl-5,16-dioxo-1,2,3,5,6,7,8,9,10,11,13a,14,14a,15,16,16a-hexadecahydrocyclopropa[e]pyrrolo[1,2-a][1,4]diazacyclopentadecin-6-yl)carbamate] | 4.82 to 103 nM | < 5.46 nM | 
13 | COc1ccc2c(O[C@@H]3C[C@H]4C(=O)N[C@]5(C(=O)NS(=O)(=O)C6(C)CC6)C[C@H]5/C=C\CC[C@@H](C)C[C@@H](C)[C@H](NC(=O)OC(C)(C)C(F)(F)F)C(=O)N4C3)nc(N(C)C)nc2c1 [Compound 3004, 1,1,1-trifluoro-2-methylpropan-2-yl((2R,6S,7R,9R,13aS,14aR,16aS,Z)-2-((2-(dimethylamino)-7-methoxyquinazolin-4-yl)oxy)-7,9-dimethyl-14a-(((1-methylcyclopropyl)sulfonyl)carbamoyl)-5,16-dioxo-1,2,3,5,6,7,8,9,10,11,13a,14,14a,15,16,16a-hexadecahydrocyclopropa[e]pyrrolo[1,2-a][1,4]diazacyclopentadecin-6-yl)carbamate] |  |  | EC50 [1, 5]: < 5.46 nM; EC50 [2, 6]: < 5.46 nM
14 | CC[C@@H]1C[C@H](C)CC/C=C\[C@@H]2C[C@@]2(C(=O)NS(=O)(=O)C2(C)CC2)NC(=O)[C@@H]2C[C@@H](Oc3nccc4cc(OC)c(F)cc34)CN2C(=O)[C@H]1NC(=O)N1CCN(C)CC1 [Compound 4335, (2R,6S,7R,9R,13aS,14aR,16aS,Z)-7-ethyl-2-((7-fluoro-6-methoxyisoquinolin-1-yl)oxy)-9-methyl-N-((1-methylcyclopropyl)sulfonyl)-6-(4-methylpiperazine-1-carboxamido)-5,16-dioxo-1,2,3,5,6,7,8,9,10,11,13a,14,14a,15,16,16a-hexadecahydrocyclopropa[e]pyrrolo[1,2-a][1,4]diazacyclopentadecine-14a-carboxamide] | 5.01 to 35 nM | 5.01 to 35 nM | 
